Measurements taken from US20150126368A1, “METHOD OF PROVIDING PLANT WITH STRESS RESISTANCE” (Nippon Soda Co., Ltd., priority 2012, published 2015).

Tests used:
[1] = test system: Eustoma grandiflorum (breed: King of Snow); experiment: Evaluation test for relief effects of high temperature injury on Eustoma grandiflorum; type: in vivo; conditions: ascorbyl palmitate 600 ppm, sprayed 10 times; 2 weeks at 35° C. daylight/15° C. dark
Experimental: Eustoma grandiflorum (breed: King of Snow) grown at a temperature of 22° C. and 16 hours under dark condition in a cell tray in the room was prepared. When an appropriately half were sprouted after seeding, a water dispersible granule of 30% ascorbyl palmitate was diluted with distilled water to a predetermined concentration, and the diluted solution was sprayed on the whole nursery plants in a sufficient amount. Subsequently, spraying by the same method was performed two times a week for the total of 10 times including the first application. Meanwhile, they were transferred to under conditions of 16 hours under a daylight condition at 35° C. and 8 hours under a dark condition at 15° C. at the expansion stage of a pair of true leaves 3 weeks after seeding, and allowed to grow for 2 weeks. Further, they were transferred to in a glass greenhouse and allowed to grow. Then naturalization was performed upon the expansion stage of two pairs of true leaves 8 week after seeding, and continuously allowed to grow in the greenhouse. Subsequently, the number of those bloomed out of the bolting plants was investigated.

[2] = test system: tomato yellow leaf curl virus (TYLCV); experiment: Test for symptom relief effects against tomato yellow leaf curl virus disease; type: in vivo; conditions: for Onset percentage(%): tomato graft-inoculated, sprayed 4 times; for Onset percentage(%) / Onset inhibition percentage(%): 25 days; for Onset inhibition percentage(%): vs solvent DMF only; for Expectation value(%): expectation value of onset inhibition percentage
Experimental: N,N-dimethylformamide based solutions were prepared according to the formulations shown in Table 18 to give chemical liquids for the tests.
Tomato nursery plants (breed: Momotaro) grown up to the 8 leaf stage in a greenhouse were prepared.
Tomato nursery plants suffering from tomato yellow leaf curl virus (TYLCV) were used as inoculation sources.
A diseased plant was obliquely cut in round slices at the stem, and graft-inoculated to a tomato nursery plant. In order to prevent dryness, parafilm was wrapped around the grafted portion for protection.
After the graft inoculation, the above chemical solution was sprayed on the stem and leaf part of the tomato nursery plant in a sufficient amount. Then, the above chemical solution was sprayed 3 times at intervals of about one week in a sufficient amount. Symptoms of tomato yellow leaf curl disease were investigated at an elapsed time of 25 days.
Symptoms were evaluated by 5 levels of onset indices of 0 (with no onset) to 4 (fulminant).
Onset inhibition percentages as compared with a region treated with solvent DMF only (Chemical solution 3) were computed by the following formula.
Onset inhibition percentage=(onset index of region treated with solvent only)−(onset index of each treatment region))/(onset index of region treated with solvent only)×100
Further, the expectation values of onset inhibition percentages were computed based on the Colby's equation.
The Colby's equation is E=M+N−MN/100. In the equation, E represents the expectation value of an onset inhibition percentage (%), and M represents an onset inhibition percentage (%) calculated from measurements when the substance (A1) is used alone, and N represent an onset inhibition percentage (%) calculated from measurements when the substance (A2) is used alone.

SMILES: CCCCCCCCCCCCCCCC(=O)OC[C@H](O)[C@H]1OC(=O)C(O)=C1O [ascorbyl palmitate]
- Number of bloomed plants [1]: 12
- Number of bolting plants [1]: 16
- Percents of bloomed plants(%) [1]: 75.0%
- Onset percentage(%) ([2]; 500 ppm alone): 30%
- Onset inhibition percentage(%) ([2]; 500 ppm alone): 40%
- Onset percentage(%) ([2]; 1000 ppm alone): 20%
- Onset inhibition percentage(%) ([2]; 1000 ppm alone): 60%
- Expectation value(%) ([2]; 500 ppm alone): 40%
- Expectation value(%) ([2]; 1000 ppm alone): 60%
